Test results reported in the kinase profiling compilation of Christmann-Franck et al. (2016).
pKd: −log10 of the molar value.

Key:
Assay in all cases: KINOMEscan competition binding
GSK3B (human) = GSK3B (human) (UniProt P49841); conditions: compound 10.0 µM
IKBKB (human) = IKBKB (human) (UniProt O14920); conditions: compound 10.0 µM
TYRO3 (human) = TYRO3 (human) (UniProt Q06418); conditions: compound 10.0 µM
MTOR (human) = MTOR (human) (UniProt P42345); conditions: compound 10.0 µM
MAP2K5 (human) = MAP2K5 (human) (UniProt Q13163); conditions: compound 10.0 µM
TRPM6 (human) = TRPM6 (human) (UniProt Q9BX84); conditions: compound 10.0 µM
[1] = test system: ABL1 (human), P00519 [M351T]; conditions: compound 10.0 µM
MAP3K1 (human) = MAP3K1 (human) (UniProt Q13233); conditions: compound 10.0 µM
[2] = test system: KIT (human), P10721 [A829P]; conditions: compound 10.0 µM
AURKA (human) = AURKA (human) (UniProt O14965)
MAP4K5 (human) = MAP4K5 (human) (UniProt Q9Y4K4); conditions: compound 10.0 µM
MAK (human) = MAK (human) (UniProt P20794); conditions: compound 10.0 µM
CDK14 (human) = CDK14 (human) (UniProt O94921); conditions: compound 10.0 µM
MAP3K9 (human) = MAP3K9 (human) (UniProt P80192); conditions: compound 10.0 µM
SGK110 (human) = SGK110 (human) (UniProt P0C264); conditions: compound 10.0 µM
RPS6KA2 KD1 (human) = RPS6KA2 KD1 (human) (UniProt Q15349); conditions: compound 10.0 µM
STK32C (human) = STK32C (human) (UniProt Q86UX6); conditions: compound 10.0 µM
CDK9 (human) = CDK9 (human) (UniProt P50750); conditions: compound 10.0 µM
TIE1 (human) = TIE1 (human) (UniProt P35590); conditions: compound 10.0 µM
CAMK2G (human) = CAMK2G (human) (UniProt Q13555); conditions: compound 10.0 µM
DAPK3 (human) = DAPK3 (human) (UniProt O43293); conditions: compound 10.0 µM
[3] = test system: EGFR (human), P00533 [G719S]; conditions: compound 10.0 µM
[4] = test system: PIK3CA (human), P42336 [E545K]; conditions: compound 10.0 µM
ITK (human) = ITK (human) (UniProt Q08881); conditions: compound 10.0 µM
STK4 (human) = STK4 (human) (UniProt Q13043); conditions: compound 10.0 µM
MAPK9 (human) = MAPK9 (human) (UniProt P45984); conditions: compound 10.0 µM
TNK1 (human) = TNK1 (human) (UniProt Q13470)
PIK3CD (human) = PIK3CD (human) (UniProt O00329); conditions: compound 10.0 µM
MYLK2 (human) = MYLK2 (human) (UniProt Q9H1R3); conditions: compound 10.0 µM
MYLK4 (human) = MYLK4 (human) (UniProt Q86YV6); conditions: compound 10.0 µM
LIMK1 (human) = LIMK1 (human) (UniProt P53667); conditions: compound 10.0 µM
ROCK2 (human) = ROCK2 (human) (UniProt O75116); conditions: compound 10.0 µM
PDPK1 (human) = PDPK1 (human) (UniProt O15530); conditions: compound 10.0 µM
MAPK11 (human) = MAPK11 (human) (UniProt Q15759); conditions: compound 10.0 µM
MAPK1 (human) = MAPK1 (human) (UniProt P28482); conditions: compound 10.0 µM
MAPK15 (human) = MAPK15 (human) (UniProt Q8TD08); conditions: compound 10.0 µM
MAPK6 (human) = MAPK6 (human) (UniProt Q16659); conditions: compound 10.0 µM
MAP3K5 (human) = MAP3K5 (human) (UniProt Q99683); conditions: compound 10.0 µM
PDGFRB (human) = PDGFRB (human) (UniProt P09619); conditions: compound 10.0 µM
[5] = test system: FLT3 (human), P36888 [R834Q]; conditions: compound 10.0 µM
SIK3 (human) = SIK3 (human) (UniProt Q9Y2K2); conditions: compound 10.0 µM

Chain of TNK1 (human) (Q13470 whole entry, looked up): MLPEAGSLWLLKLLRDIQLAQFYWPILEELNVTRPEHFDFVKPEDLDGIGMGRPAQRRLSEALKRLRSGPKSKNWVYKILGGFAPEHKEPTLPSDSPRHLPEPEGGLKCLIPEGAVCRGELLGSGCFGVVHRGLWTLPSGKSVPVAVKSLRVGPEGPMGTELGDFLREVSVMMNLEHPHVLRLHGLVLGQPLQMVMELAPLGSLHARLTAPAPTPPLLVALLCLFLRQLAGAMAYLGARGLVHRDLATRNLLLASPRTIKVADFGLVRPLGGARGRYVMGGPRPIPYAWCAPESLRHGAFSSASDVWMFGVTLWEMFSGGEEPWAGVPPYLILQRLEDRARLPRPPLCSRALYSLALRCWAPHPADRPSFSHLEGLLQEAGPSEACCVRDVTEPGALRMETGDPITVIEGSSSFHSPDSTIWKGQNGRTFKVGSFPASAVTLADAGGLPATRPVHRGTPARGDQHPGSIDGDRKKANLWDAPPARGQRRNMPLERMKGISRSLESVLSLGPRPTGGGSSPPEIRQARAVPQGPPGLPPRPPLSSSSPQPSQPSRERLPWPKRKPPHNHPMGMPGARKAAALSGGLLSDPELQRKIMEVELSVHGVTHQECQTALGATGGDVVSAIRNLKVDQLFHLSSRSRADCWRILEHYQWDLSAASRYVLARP
Chain of AURKA (human) (O14965 whole entry, looked up): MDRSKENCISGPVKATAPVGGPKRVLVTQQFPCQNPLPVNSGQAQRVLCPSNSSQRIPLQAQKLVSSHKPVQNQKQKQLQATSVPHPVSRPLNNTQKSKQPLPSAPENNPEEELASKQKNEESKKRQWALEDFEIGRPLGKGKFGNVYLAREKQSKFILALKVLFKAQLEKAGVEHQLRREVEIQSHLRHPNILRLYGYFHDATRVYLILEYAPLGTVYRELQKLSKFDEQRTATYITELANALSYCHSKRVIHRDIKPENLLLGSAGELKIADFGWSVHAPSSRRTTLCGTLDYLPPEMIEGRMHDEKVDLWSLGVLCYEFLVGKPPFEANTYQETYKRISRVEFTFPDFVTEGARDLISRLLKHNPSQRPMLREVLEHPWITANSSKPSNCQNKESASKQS
Chain of MAPK6 (human) (Q16659 whole entry, looked up): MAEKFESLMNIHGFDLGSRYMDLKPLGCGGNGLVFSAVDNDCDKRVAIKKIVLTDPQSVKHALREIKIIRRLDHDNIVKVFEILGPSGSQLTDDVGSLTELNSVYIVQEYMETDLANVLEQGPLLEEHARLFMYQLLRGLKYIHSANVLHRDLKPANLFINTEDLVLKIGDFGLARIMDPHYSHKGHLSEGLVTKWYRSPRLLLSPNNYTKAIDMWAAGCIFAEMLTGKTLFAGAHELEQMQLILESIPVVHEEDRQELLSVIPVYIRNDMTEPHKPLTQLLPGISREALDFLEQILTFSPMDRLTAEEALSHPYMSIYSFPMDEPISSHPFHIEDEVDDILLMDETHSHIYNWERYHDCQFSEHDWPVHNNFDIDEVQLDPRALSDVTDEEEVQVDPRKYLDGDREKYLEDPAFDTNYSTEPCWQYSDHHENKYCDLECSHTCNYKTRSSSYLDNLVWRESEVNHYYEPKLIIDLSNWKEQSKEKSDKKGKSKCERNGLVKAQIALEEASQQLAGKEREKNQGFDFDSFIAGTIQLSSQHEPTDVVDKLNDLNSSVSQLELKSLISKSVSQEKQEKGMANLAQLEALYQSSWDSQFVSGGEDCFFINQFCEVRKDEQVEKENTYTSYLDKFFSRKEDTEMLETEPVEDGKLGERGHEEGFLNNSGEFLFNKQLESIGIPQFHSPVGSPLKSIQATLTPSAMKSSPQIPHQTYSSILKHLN
Chain of PDGFRB (human) (P09619 whole entry, looked up): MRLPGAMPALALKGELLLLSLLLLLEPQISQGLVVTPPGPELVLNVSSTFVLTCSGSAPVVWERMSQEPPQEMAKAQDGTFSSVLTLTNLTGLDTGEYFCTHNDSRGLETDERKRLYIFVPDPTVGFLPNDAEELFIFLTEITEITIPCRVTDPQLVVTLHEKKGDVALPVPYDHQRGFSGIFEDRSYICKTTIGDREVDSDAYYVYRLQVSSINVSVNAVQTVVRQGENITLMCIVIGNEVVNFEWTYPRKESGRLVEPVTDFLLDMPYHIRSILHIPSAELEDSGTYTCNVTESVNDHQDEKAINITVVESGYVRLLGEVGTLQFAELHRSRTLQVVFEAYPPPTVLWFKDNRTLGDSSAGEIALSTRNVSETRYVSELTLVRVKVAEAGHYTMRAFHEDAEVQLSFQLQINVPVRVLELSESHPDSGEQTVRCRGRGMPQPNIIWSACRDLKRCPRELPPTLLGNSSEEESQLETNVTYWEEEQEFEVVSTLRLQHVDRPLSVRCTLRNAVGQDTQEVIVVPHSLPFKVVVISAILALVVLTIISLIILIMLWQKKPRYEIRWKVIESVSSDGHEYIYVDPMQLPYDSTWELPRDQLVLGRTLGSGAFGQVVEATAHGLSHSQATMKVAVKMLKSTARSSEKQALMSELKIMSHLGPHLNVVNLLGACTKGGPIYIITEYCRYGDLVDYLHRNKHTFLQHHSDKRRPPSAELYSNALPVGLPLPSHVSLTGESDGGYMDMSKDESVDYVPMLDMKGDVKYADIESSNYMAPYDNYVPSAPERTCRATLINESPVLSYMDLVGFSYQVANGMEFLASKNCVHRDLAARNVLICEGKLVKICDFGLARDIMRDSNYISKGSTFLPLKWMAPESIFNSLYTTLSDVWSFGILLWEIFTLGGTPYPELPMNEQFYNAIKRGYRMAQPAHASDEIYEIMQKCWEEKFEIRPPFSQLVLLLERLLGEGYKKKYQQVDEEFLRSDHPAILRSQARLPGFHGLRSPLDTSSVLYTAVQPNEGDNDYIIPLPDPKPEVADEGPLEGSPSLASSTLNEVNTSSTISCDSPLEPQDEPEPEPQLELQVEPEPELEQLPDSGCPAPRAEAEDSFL
Chain of LIMK1 (human) (P53667 whole entry, looked up): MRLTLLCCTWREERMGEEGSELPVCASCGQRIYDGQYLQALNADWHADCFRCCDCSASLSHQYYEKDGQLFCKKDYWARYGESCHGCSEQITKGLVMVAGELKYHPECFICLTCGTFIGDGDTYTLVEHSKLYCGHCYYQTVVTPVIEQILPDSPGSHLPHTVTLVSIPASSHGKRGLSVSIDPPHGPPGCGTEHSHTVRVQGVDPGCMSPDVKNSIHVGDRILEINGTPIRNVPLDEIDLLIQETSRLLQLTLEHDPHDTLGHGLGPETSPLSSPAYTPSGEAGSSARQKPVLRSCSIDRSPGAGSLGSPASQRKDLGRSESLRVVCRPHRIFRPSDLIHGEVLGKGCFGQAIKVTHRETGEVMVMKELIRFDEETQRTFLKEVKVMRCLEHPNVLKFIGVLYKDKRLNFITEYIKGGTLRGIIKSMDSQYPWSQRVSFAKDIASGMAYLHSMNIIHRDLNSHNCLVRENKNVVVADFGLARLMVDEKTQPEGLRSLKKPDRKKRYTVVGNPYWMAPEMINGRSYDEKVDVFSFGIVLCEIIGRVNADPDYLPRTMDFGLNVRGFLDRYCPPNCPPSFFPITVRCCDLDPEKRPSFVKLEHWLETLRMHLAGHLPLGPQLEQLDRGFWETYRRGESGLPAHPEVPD
Chain of MAP3K1 (human) (Q13233 whole entry, looked up): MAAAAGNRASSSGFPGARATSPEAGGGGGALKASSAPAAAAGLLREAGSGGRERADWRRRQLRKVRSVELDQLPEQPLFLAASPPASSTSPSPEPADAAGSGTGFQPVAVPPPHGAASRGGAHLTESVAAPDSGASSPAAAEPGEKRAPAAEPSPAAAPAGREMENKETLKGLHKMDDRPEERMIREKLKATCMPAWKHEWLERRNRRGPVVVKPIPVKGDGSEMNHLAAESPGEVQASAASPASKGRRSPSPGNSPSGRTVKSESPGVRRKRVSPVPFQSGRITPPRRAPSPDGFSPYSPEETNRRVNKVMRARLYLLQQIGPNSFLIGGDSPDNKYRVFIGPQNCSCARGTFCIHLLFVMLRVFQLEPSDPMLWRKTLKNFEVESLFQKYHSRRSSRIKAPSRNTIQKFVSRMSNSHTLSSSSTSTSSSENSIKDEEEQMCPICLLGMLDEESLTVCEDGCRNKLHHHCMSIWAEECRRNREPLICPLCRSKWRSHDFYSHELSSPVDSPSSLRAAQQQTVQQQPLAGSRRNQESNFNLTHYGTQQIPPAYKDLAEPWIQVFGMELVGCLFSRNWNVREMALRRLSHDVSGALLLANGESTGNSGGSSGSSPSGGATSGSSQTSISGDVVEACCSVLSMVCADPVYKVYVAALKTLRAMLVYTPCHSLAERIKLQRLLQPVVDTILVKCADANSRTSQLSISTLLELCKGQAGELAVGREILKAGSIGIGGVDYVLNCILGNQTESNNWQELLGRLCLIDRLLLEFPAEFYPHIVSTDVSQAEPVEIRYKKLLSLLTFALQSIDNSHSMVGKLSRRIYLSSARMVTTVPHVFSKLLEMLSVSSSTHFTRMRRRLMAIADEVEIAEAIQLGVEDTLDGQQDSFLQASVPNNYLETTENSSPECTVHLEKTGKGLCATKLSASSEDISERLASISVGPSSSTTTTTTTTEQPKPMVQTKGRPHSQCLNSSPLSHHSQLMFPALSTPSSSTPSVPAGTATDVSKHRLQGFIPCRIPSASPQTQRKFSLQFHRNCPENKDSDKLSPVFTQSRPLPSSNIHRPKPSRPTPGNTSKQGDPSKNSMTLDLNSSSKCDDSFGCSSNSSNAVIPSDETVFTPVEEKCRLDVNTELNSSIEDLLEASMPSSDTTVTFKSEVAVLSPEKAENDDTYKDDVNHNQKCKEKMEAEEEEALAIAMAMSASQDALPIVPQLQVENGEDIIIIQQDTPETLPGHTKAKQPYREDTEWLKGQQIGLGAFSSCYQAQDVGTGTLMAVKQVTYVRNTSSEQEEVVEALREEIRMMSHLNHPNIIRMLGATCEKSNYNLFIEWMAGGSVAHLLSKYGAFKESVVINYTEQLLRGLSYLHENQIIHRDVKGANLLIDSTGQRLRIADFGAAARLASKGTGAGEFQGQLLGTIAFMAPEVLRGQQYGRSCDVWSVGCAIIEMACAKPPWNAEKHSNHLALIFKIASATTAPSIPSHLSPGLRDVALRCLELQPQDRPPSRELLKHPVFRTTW

With `COc1cc(C(=O)N2CCC(N3CCN(C)CC3)CC2)ccc1Nc1ncc2c(n1)N(C)c1ccccc1C(=O)N2C` the kinase still bound, per cent of control (GSK3B (human)) was 88%, the kinase still bound, per cent of control (IKBKB (human)) was 89% and the kinase still bound, per cent of control (TYRO3 (human)) was 100%. It also gave a kinase still bound, per cent of control (MTOR (human)) of 97%, a kinase still bound, per cent of control (MAP2K5 (human)) of 85% and a kinase still bound, per cent of control (TRPM6 (human)) of 100%. It also gave a kinase still bound, per cent of control [1] of 94%, a kinase still bound, per cent of control (MAP3K1 (human)) of 95% and a kinase still bound, per cent of control [2] of 100%. It also gave a pKd (AURKA (human)) of 5.80, a kinase still bound, per cent of control (AURKA (human); compound 10.0 µM) of 1.2% and a kinase still bound, per cent of control (MAP4K5 (human)) of 100%. For the same compound, the kinase still bound, per cent of control (MAK (human)) was 72%, the residual activity (CDK14 (human)) was 81% and the kinase still bound, per cent of control (MAP3K9 (human)) was 93%. It also gave a kinase still bound, per cent of control (SGK110 (human)) of 62%, a kinase still bound, per cent of control (RPS6KA2 KD1 (human)) of 83% and a kinase still bound, per cent of control (STK32C (human)) of 100%. The residual activity (CDK9 (human)) was 100%, the kinase still bound, per cent of control (TIE1 (human)) was 100% and the kinase still bound, per cent of control (CAMK2G (human)) was 47%. The kinase still bound, per cent of control (DAPK3 (human)) was 67%, the kinase still bound, per cent of control [3] was 86% and the kinase still bound, per cent of control [4] was 100%. It also gave a kinase still bound, per cent of control (ITK (human)) of 82%, a kinase still bound, per cent of control (STK4 (human)) of 100% and a kinase still bound, per cent of control (MAPK9 (human)) of 94%. The pKd (TNK1 (human)) was 7.64, the kinase still bound, per cent of control (TNK1 (human); compound 10.0 µM) was 2.8% and the kinase still bound, per cent of control (PIK3CD (human)) was 62%. The kinase still bound, per cent of control (MYLK2 (human)) was 98%, the kinase still bound, per cent of control (MYLK4 (human)) was 80% and the kinase still bound, per cent of control (LIMK1 (human)) was 95%. For the same compound, the kinase still bound, per cent of control (ROCK2 (human)) was 87%, the kinase still bound, per cent of control (PDPK1 (human)) was 100% and the kinase still bound, per cent of control (MAPK11 (human)) was 60%. The kinase still bound, per cent of control (MAPK1 (human)) was 85%, the kinase still bound, per cent of control (MAPK15 (human)) was 100% and the kinase still bound, per cent of control (MAPK6 (human)) was 100%. The kinase still bound, per cent of control (MAP3K5 (human)) was 100%, the kinase still bound, per cent of control (PDGFRB (human)) was 100% and the kinase still bound, per cent of control [5] was 100%. The kinase still bound, per cent of control (SIK3 (human)) was 100%.
